Reference: PubChem BioAssay (NCI)
Where “and” joins values, the source holds several entries; their conditions need not be identical. Identical values can stand only once.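 48-hour exposure; five concentrations; linearly interpolated endpoints. GI50 = concentration required for 50% inhibition of growth. TGI marks complete inhibition of growth.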

These molecules were tested on MDA-MB-468 breast (assay: growth of human tumour cells (NCI), 48 h).

Row | Compound | GI50 | TGI
1 | CC(C)COc1nc2c(c(=O)n(C)c(=O)n2C)n1C | > 100 µM | > 100 µM
2 | CC(=O)[C@H]1CCC/C=C/[C@@H]2C[C@H](O)C[C@H]2[C@H](O)/C=C/C(=O)O1 | 0.159 µM | 0.687 µM
3 | CCCCCCCC/C=C/CCCCCCCC1=NC(C)(C)CN1CCO | 1.67 µM | 3.21 µM
4 | O=S(=O)(Nc1ccc(I)c(Cl)c1)c1ccc(-c2cnc(C3CC3)o2)cc1 | 0.314 µM | 2.65 µM
5 | CCN(CC)CCCC(C)N/C(=C1\C(=O)NC(=O)\C1=C(/NC(C)CCCN(CC)CC)c1cccc(OC)c1)c1cccc(OC)c1 (centres undefined) | 0.762 µM | 1.75 µM
6 | Clc1ccccc1-c1nnc2c(Cc3ccccc3)nc3ccccc3n12 | 5.24 µM | > 100 µM
7 | c1ccc(CNCCN(CCNCc2ccccn2)Cc2ccc3ccccc3c2)nc1 | 2.18 µM | 4.92 µM
8 | O=[N+]([O-])c1cc([N+](=O)[O-])c(Nn2c3ccccc3c3ccccc32)c([N+](=O)[O-])c1 | 0.274 µM | 0.782 µM
9 | Cc1cc2c(-c3nc4ccccn4c3N)c(O)c(O)cc2c(O)c1-c1c(C)cc2c(-c3nc4ccccn4c3N)c(O)c(O)cc2c1O | 0.538 µM | 3.52 µM
10 | CCNC(=O)Oc1ccc(/C(=C(/C)Cc2ccc(OC)cc2)c2ccc(OCCN(CC)CC)cc2)cc1 | 1.63 µM | 3.46 µM
11 | CCN(Cc1cccc(Cl)c1)c1ccc(CO)c(Cl)c1 | 0.025 µM | 0.0817 µM
12 | CN1CCN(C(=O)COc2ccc(/C=C3\CC4C5CC=C6CC(Cl)CCC6(C)C5CCC4(C)C3=O)cc2)CC1 (centres undefined) | 6.03 µM | > 100 µM
13 | CN1CCN(Cc2ccc(NC(=O)c3cncc(C#Cc4cnc(N)c5cccnc45)c3)cc2C(F)(F)F)CC1 | 0.698 µM | > 50 µM
14 | CO[C@H]1CC(O[C@@H]2/C(C)=C/C[C@@H]3C[C@@H](C[C@]4(CC[C@H](C)[C@@H](C5CCCCC5)O4)O3)OC(=O)[C@@H]3C=C(C)/C(=N/O)[C@H]4OC/C(=C\C=C\[C@@H]2C)[C@]43O)O[C@@H](C)C1O (some centres undefined) | 0.793 µM | 1.76 µM
15 | N#Cc1cnc(Nc2cc(NC[C@H]3CNCCO3)c(C(F)(F)F)cn2)cn1 | 16.4 µM | 37.4 µM
16 | COc1cc(C2c3cc4c(cc3C(OC(=O)C[n+]3ccccc3)C3COC(=O)C23)OCO4)cc(OC)c1OC (centres undefined) | 0.0242 µM | 0.0777 µM
17 | COc1ccc([C@@]23Oc4cc(OC)cc(OC)c4[C@]2(O)[C@H](O)[C@H](C(N)=O)[C@H]3c2ccccc2)cc1 | < 0.01 µM | 0.0458 µM
18 | COc1cc(C(=O)c2cnc(-c3cccc4[nH]ccc34)[nH]2)cc(OC)c1OC | 0.0646 µM and < 0.01 µM | 88.7 µM
19 | Cc1cc(-c2cc(O)ccc2Cl)cc2nnc(Nc3ccc(OCCN4CCCC4)cc3)nc12 | 0.583 µM | 2.04 µM
20 | Cc1cc(Nc2cc(N3CCN(C)CC3)nc(/C=C/c3ccccc3)n2)n[nH]1 | 0.59 µM | 2.44 µM
21 | CCOc1ccn(-c2ccc(F)cc2)c(=O)c1C(=O)Nc1ccc(Oc2ccnc(N)c2Cl)c(F)c1 | 5.7 µM | 34.8 µM
22 | CSc1nc2c(c(=O)n1C)CN(C1CCCCC1)C(=O)C(c1ccccc1)N2 (centres undefined) | 52.2 µM | > 100 µM
23 | Cc1cc(Nc2nc(N[C@@H](C)c3ncc(F)cn3)ncc2Cl)n[nH]1 | 18.2 µM | 52.1 µM
24 | CC(=O)C1=C(O)C=C2Oc3c(C(=O)/C=C/c4cc(Cl)cc(Cl)c4)c(O)c(C)c(O)c3[C@]2(C)C1=O | 0.529 µM | 1.34 µM
25 | CC(=O)c1cc(C(=O)c2ccc3c(c2)Sc2ccccc2N3)n2ccccc12 | 0.00256 µM and 0.00332 µM | 
26 | C#CCN(c1ccc(C(=O)N[C@@H](CCC(=O)N[C@H](CCC(=O)O)C(=O)O)C(=O)O)cc1)C1CCc2cc3nc(CO)[nH]c(=O)c3cc21 (some centres undefined) | > 23.1 µM | > 100 µM
27 | CN1C(=O)[C@]23SSC1(C)C(=O)N2[C@H]1Nc2ccccc2C1([C@@]12c4ccccc4N[C@@H]1N1C(=O)C4(C)SS[C@]1(C(=O)N4C)[C@H]2O)[C@@H]3O (some centres undefined) | 0.0351 µM and 0.115 µM | 0.103 µM and 0.322 µM
28 | CC[C@@H](C)/C=C(C)/C=C/C(=O)c1c(O)c(-c2ccc(O)cc2)cn(O)c1=O | 0.167 µM | 0.624 µM
29 | Cn1cc(-c2cnn3c(N)c(Br)c(C4CCCNC4)nc23)cn1 (centres undefined) | 11.1 µM | 44.1 µM
30 | Cc1cc(C)c(-c2c(N)cc(Br)cc2Br)c(N)c1 | 2.24 µM | 5.76 µM
